{"source": "paper PMC9227106", "about": "(Viruses, 2022)", "key": {"[1]": {"assay": "Cell-based cytotoxicity analysis, WST-1 assay (HeLa cell)", "conditions": "human; for viability at 48 h, 10 µM: vs DMSO; for CC50: 50% cytotoxic concentration, HeLa cells, WST-1"}, "[2]": {"test_system": "Vpr-induced G2/M arrest in Vpr transfected HeLa cells", "assay": "Cell-based G2 arrest inhibition assay using […]", "set-up": "species or system human", "conditions": "10 µM, 44 h; for G2 arrest recover (CELAVIEW) recover rate vs DMSO(%): added 4 h post-transfection"}, "[3]": {"test_system": "Vpr-induced G2/M arrest in Vpr transfected HeLa cells", "assay": "Analysis of the cell cycle using flow cytometry", "type": "cell-based, human", "conditions": "for recovery of the G2-arrest mediated by Vpr (flow cytometry): 10 μM, Vpr-expressing HeLa cells, result in words; for G2 arrest recover (Flow cytometry) Vpr G1% / G2 arrest recover (Flow cytometry) Vpr G2% / G2 arrest recover (Flow cytometry) Vpr G2/G1: Flag-Vpr transfected HeLa; for G2 arrest recover (Flow cytometry) Vpr G1% / G2 arrest recover (Flow cytometry) Vpr G2% / G2 arrest recover (Flow cytometry) Vpr G2/G1 / G2 arrest recover (Flow cytometry) ZsG G1% / G2 arrest recover (Flow cytometry) ZsG G2% / G2 arrest recover (Flow cytometry) ZsG G2/G1: 10 µM; for G2 arrest recover (Flow cytometry) ZsG G1% / G2 arrest recover (Flow cytometry) ZsG G2% / G2 arrest recover (Flow cytometry) ZsG G2/G1: control vector (ZsG) transfected HeLa"}, "[4]": {"assay": "Cell-based cytotoxicity analysis, WST-1 assay (MDM cell)", "conditions": "human"}, "[5]": {"test_system": "HIV-1 NF462", "assay": "Inhibition assay of HIV replication in HIV-infected MDM (p24 ELISA)", "type": "cell-based", "conditions": "for inhibition of HIV-1 replication in MDM / inhibition at 10 µM: 10 µM; for inhibition of HIV-1 replication in MDM: two healthy donors 1 and 2, result in words; for IC50: read-out: MDM IC50; for inhibition at 10 µM: 8 days; for MDM SI: selective index, calculated as CC50/IC50 in MDM"}, "[6]": {"biological_target": "T1, GST-tagged Vpr protein (Human immunodeficiency virus type 1 group M subtype B, UniProt P12520)", "T1 construct": "made in house; host or cells: E. coli", "T1 sequence (P12520 whole entry)": "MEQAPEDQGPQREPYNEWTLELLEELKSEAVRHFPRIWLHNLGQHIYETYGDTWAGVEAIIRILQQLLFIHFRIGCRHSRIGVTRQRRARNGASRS", "assay": "Surface plasmon resonance (SPR) binding analysis", "set-up": "species or system HIV-1", "conditions": "for direct binding to Vpr (SPR): 50 μM compound, GST-Vpr on sensor chip, result in words; for Vpr Binding Kd: SPR (Biacore), GST-Vpr, 3.13 to 100 µM, two independent experiments"}, "[7]": {"test_system": "Flag-Vpr in HeLa cells", "assay": "Localization of Vpr visualized by confocal microscopy", "type": "cell-based, HIV-1", "conditions": "10 μM, 44 h post-treatment"}, "[8]": {"test_system": "Flag-Vpr in HeLa cells", "assay": "Expression level of Vpr assessed by Western blotting analysis", "type": "cell-based, HIV-1", "conditions": "10 μM, 44 h post-treatment"}, "[9]": {"conditions": "average of n=1 and n=2, read-out: HeLa viability (%) AVERAGE"}, "[10]": {"conditions": "replicate 1, read-out: HeLa viability (%) viability n=1"}, "[11]": {"conditions": "replicate 2, read-out: HeLa viability (%) viability n=2"}, "[12]": {"conditions": "Human immunodeficiency virus 1, MDM donor 1, p24 ELISA, read-out: HIV replication inhibition (%) Donor 1"}, "[13]": {"conditions": "Human immunodeficiency virus 1, MDM donor 2, p24 ELISA, read-out: HIV replication inhibition (%) Donor 2"}, "[14]": {"conditions": "Human immunodeficiency virus 1, HIV-1 NF462-infected MDM, donors 1 and 4, 8 days, p24 ELISA"}}, "note": "Values joined by “and” are separate entries in the source; they are usually repeats but may differ in a detail not shown here. Equal values may be shown once. Read-outs that look alike come from different tables or passages of the source.", "data": [{"smiles": "CCOc1ccc(OCC(=O)Nc2cc(C)nn2-c2nc(C)c(CC)c(O)n2)cc1", "note": "[VTD263, 2-(4-ethoxyphenoxy)-N-[1-(5-ethyl-6-methyl-4-oxo(3-hydropyrimidin-2-yl))-3-methylpyrazol-5-yl]acetamide]", "values": [{"measurement": "viability at 48 h, 10 µM", "setting": "[1]; [9]", "result": 70.1, "unit": "%"}, {"measurement": "viability at 48 h, 10 µM", "setting": "[1]; [10]", "result": 65.5, "unit": "%"}, {"measurement": "viability at 48 h, 10 µM", "setting": "[1]; [11]", "result": 74.7, "unit": "%"}, {"measurement": "CC50", "setting": "[1]", "result": "> 100", "unit": "µM"}, {"measurement": "G2 arrest recover (CELAVIEW) cell count vs DMSO", "setting": "[2]", "result": 81.6}, {"measurement": "G2 arrest recover (CELAVIEW) recover rate vs DMSO(%)", "setting": "[2]", "result": 95.5, "unit": "%"}, {"measurement": "recovery of the G2-arrest mediated by Vpr (flow cytometry)", "setting": "[3]", "result": "recovered the G2-arrest mediated by Vpr"}, {"measurement": "G2 arrest recover (Flow cytometry) Vpr G1%", "setting": "[3]", "result": 45.86, "unit": "%"}, {"measurement": "G2 arrest recover (Flow cytometry) Vpr G2%", "setting": "[3]", "result": 23.17, "unit": "%"}, {"measurement": "G2 arrest recover (Flow cytometry) Vpr G2/G1", "setting": "[3]", "result": 0.5052}, {"measurement": "G2 arrest recover (Flow cytometry) ZsG G1%", "setting": "[3]", "result": 43.35, "unit": "%"}, {"measurement": "G2 arrest recover (Flow cytometry) ZsG G2%", "setting": "[3]", "result": 18.73, "unit": "%"}, {"measurement": "G2 arrest recover (Flow cytometry) ZsG G2/G1", "setting": "[3]", "result": 0.4321}, {"measurement": "CC50 at 48 h", "setting": "[4]", "result": "38.8 ± 0.76", "unit": "µM"}, {"measurement": "viability at 10 days, 10 µM", "setting": "[4]", "result": 131, "unit": "%"}, {"measurement": "inhibition of HIV-1 replication in MDM", "setting": "[5]", "result": "potently inhibited HIV-1 replication"}, {"measurement": "effect on HIV-1 replication at low concentration", "setting": "[5]; 0.01 to 0.001 μM, MDM", "result": "tended to increase HIV-1 replication"}, {"measurement": "IC50", "setting": "[5]; Human immunodeficiency virus 1, […]", "result": "11.4 ± 4", "unit": "µM"}, {"measurement": "inhibition at 10 µM", "setting": "[5]; [12]", "result": 91.2, "unit": "%"}, {"measurement": "inhibition at 10 µM", "setting": "[5]; [13]", "result": 73.3, "unit": "%"}, {"measurement": "effect on HIV-1 virus release at high concentration", "setting": "[5]; high concentration, MDM", "result": "decreased the HIV-1 virus release"}, {"measurement": "MDM SI", "setting": "[5]", "result": 3.4}, {"measurement": "direct binding to Vpr (SPR)", "setting": "[6]", "result": "did not directly bind to Vpr"}, {"measurement": "Vpr Binding Kd", "setting": "[6]", "result": "Not binding"}, {"measurement": "localization of Vpr in HeLa cells", "setting": "[7]", "result": "not affected"}, {"measurement": "expression level of Vpr in HeLa cells", "setting": "[8]", "result": "not affected"}]}, {"smiles": "COc1ccc2ccccc2c1C1C=C(c2ccccc2)NC(=S)N1", "note": "(stereo not shown) [VTD232, 4-(2-methoxy-1-naphthyl)-6-phenyl-3,4-dihydro-2(1H)-pyrimidinethione]", "values": [{"measurement": "viability at 48 h, 10 µM", "setting": "[1]; [9]", "result": 87.5, "unit": "%"}, {"measurement": "viability at 48 h, 10 µM", "setting": "[1]; [10]", "result": 88, "unit": "%"}, {"measurement": "viability at 48 h, 10 µM", "setting": "[1]; [11]", "result": 87, "unit": "%"}, {"measurement": "CC50", "setting": "[1]", "result": "57.1 ± 30.9", "unit": "µM"}, {"measurement": "G2 arrest recover (CELAVIEW) cell count vs DMSO", "setting": "[2]", "result": 95.1}, {"measurement": "G2 arrest recover (CELAVIEW) recover rate vs DMSO(%)", "setting": "[2]", "result": 49.2, "unit": "%"}, {"measurement": "recovery of the G2-arrest mediated by Vpr (flow cytometry)", "setting": "[3]", "result": "recovered the G2-arrest mediated by Vpr"}, {"measurement": "G2 arrest recover (Flow cytometry) Vpr G1%", "setting": "[3]", "result": 29.06, "unit": "%"}, {"measurement": "G2 arrest recover (Flow cytometry) Vpr G2%", "setting": "[3]", "result": 39.99, "unit": "%"}, {"measurement": "G2 arrest recover (Flow cytometry) Vpr G2/G1", "setting": "[3]", "result": 1.376}, {"measurement": "G2 arrest recover (Flow cytometry) ZsG G1%", "setting": "[3]", "result": 49.39, "unit": "%"}, {"measurement": "G2 arrest recover (Flow cytometry) ZsG G2%", "setting": "[3]", "result": 11.48, "unit": "%"}, {"measurement": "G2 arrest recover (Flow cytometry) ZsG G2/G1", "setting": "[3]", "result": 0.2324}, {"measurement": "CC50 at 48 h", "setting": "[4]", "result": "30.5 ± 5", "unit": "µM"}, {"measurement": "viability at 10 days, 10 µM", "setting": "[4]", "result": 116, "unit": "%"}, {"measurement": "inhibition of HIV-1 replication in MDM", "setting": "[5]", "result": "potently inhibited HIV-1 replication"}, {"measurement": "inhibition at 10 µM", "setting": "[5]; [12]", "result": 99.1, "unit": "%"}, {"measurement": "inhibition at 10 µM", "setting": "[5]; [13]", "result": 82.2, "unit": "%"}, {"measurement": "IC50", "setting": "[5]; [14]", "result": "0.0039 ± 0.0046", "unit": "µM"}, {"measurement": "MDM SI", "setting": "[5]", "result": 7820}, {"measurement": "direct binding to Vpr (SPR)", "setting": "[6]", "result": "did not directly bind to Vpr"}, {"measurement": "Vpr Binding Kd", "setting": "[6]", "result": "Not binding"}, {"measurement": "localization of Vpr in HeLa cells", "setting": "[7]", "result": "not affected"}, {"measurement": "expression level of Vpr in HeLa cells", "setting": "[8]", "result": "not affected"}]}, {"smiles": "COCCCNC(=O)C(=O)N/N=C/c1c(O)ccc2ccccc12", "note": "[VTD227, N-[(1E)-2-(2-hydroxynaphthyl)-1-azavinyl]-N′-(3-methoxypropyl)ethane-1,2-diamide]", "values": [{"measurement": "viability at 48 h, 10 µM", "setting": "[1]; [9]", "result": 89.2, "unit": "%"}, {"measurement": "viability at 48 h, 10 µM", "setting": "[1]; [10]", "result": 84.2, "unit": "%"}, {"measurement": "viability at 48 h, 10 µM", "setting": "[1]; [11]", "result": 94.2, "unit": "%"}, {"measurement": "CC50", "setting": "[1]", "result": "99 ± 22", "unit": "µM"}, {"measurement": "G2 arrest recover (CELAVIEW) cell count vs DMSO", "setting": "[2]", "result": 72.8}, {"measurement": "G2 arrest recover (CELAVIEW) recover rate vs DMSO(%)", "setting": "[2]", "result": 60.0, "unit": "%"}, {"measurement": "recovery of the G2-arrest mediated by Vpr (flow cytometry)", "setting": "[3]", "result": "recovered the G2-arrest mediated by Vpr"}, {"measurement": "G2 arrest recover (Flow cytometry) Vpr G1%", "setting": "[3]", "result": 41.76, "unit": "%"}, {"measurement": "G2 arrest recover (Flow cytometry) Vpr G2%", "setting": "[3]", "result": 22.13, "unit": "%"}, {"measurement": "G2 arrest recover (Flow cytometry) Vpr G2/G1", "setting": "[3]", "result": "0.52 and 0.5299"}, {"measurement": "G2 arrest recover (Flow cytometry) ZsG G1%", "setting": "[3]", "result": 44.2, "unit": "%"}, {"measurement": "G2 arrest recover (Flow cytometry) ZsG G2%", "setting": "[3]", "result": 25.62, "unit": "%"}, {"measurement": "G2 arrest recover (Flow cytometry) ZsG G2/G1", "setting": "[3]", "result": "0.57 and 0.5796"}, {"measurement": "CC50 at 48 h", "setting": "[4]", "result": "17.9 ± 5.3", "unit": "µM"}, {"measurement": "viability at 10 days, 10 µM", "setting": "[4]", "result": 82, "unit": "%"}, {"measurement": "inhibition of HIV-1 replication in MDM", "setting": "[5]", "result": "potently inhibited HIV-1 replication"}, {"measurement": "inhibition at 10 µM", "setting": "[5]; [12]", "result": 99.5, "unit": "%"}, {"measurement": "inhibition at 10 µM", "setting": "[5]; [13]", "result": 103, "unit": "%"}, {"measurement": "IC50", "setting": "[5]; [14]", "result": "0.78 ± 0.59", "unit": "µM"}, {"measurement": "MDM SI", "setting": "[5]", "result": 22.9}, {"measurement": "Kd", "setting": "[6]", "result": "8.8 ± 0.48", "unit": "µM"}, {"measurement": "localization of Vpr in HeLa cells", "setting": "[7]", "result": "not affected"}, {"measurement": "expression level of Vpr in HeLa cells", "setting": "[8]", "result": "not affected"}]}]}
